Experiments:
[1] = system: AMPK; experiment: AMPK activity in a cell model: hepatocytes isolated from rats; type: cell-based, rat; conditions: 500 μM, after 30 minutes, SAMS peptide phosphorylation with [γ-32P]-ATP
Protocol: AMPK Activity in a Cell Model: Hepatocytes Isolated from Rats
The hepatocytes are isolated according to the technique of Berry and Friend [J. Cell Biol, 43, 506–520 (1969)]. The AMPK activity was measured according to the method described by Davies el al. [Eur. J. Biochem., 186, 123–128 (1989)]. The latter involves phosphorylation starting from [γ-^32P]-ATP of a peptide substrate (SAMS), based on the sequence surrounding the site phosphorylated by the AMPK of the ACC. The reaction for measuring the AMPK activity ends with the deposition of an aliquot of the reaction medium on a phosphocellulose paper (Whatman P81), on which the SAMS peptide is fixed and the radioactivity of which is measured after washing.
By way of example, the compound of Example 4 activates AMPK, after 30 minutes at a concentration of 500 μM, by 312% (compared with the base value), whereas the same concentration of AICA riboside, used as reference, under the same conditions, activates it by 178%.

[2] = system: obese ob/ob mouse; experiment: Hypolipaemic activity in the obese ob/ob mouse; type: in vivo
Protocol: The products of the invention were tested in vivo in the obese ob/ob mouse, used as a model of obesity-associated insulin resistance.

Q: With `NC(=O)c1ncn([C@@H]2O[C@H](CO)[C@@H](O)[C@H]2O)c1N` [AICA riboside] as the compound, how does the “AMPK activation (compared with the base value)” value [1] read?
A: The value was 178%.

Q: Which reduction of triglycerides ([2]; 125 mg/kg per os) does the source give for `Nc1nc2cccnc2n1C1CCCCCC1` [Example 4, 3-Cycloheptyl-3H-imidazo[4,5-b]pyridine-2-amine] here?
A: Its reduction of triglycerides is “significantly reduces the triglycerides”.

Q: What about the “AMPK activation (compared with the base value)” value [1] of the same compound?
A: Its value is 312%.

Q: `CN(C)C(=N)N=C(N)N` [metformin] was tested. Which reduction of triglycerides ([2]; 250 mg/kg per os) did it give?
A: Its reduction of triglycerides is “the same reduction is obtained”.

From patent US7098220B2, “Imidazopyridine derivatives, preparation method and pharmaceutical compositions containing same” (Les Laboratoires Servier, priority 2002, dated 2006)
